ChEMBL document CHEMBL5505956, “Plant-derived strategies to fight against severe acute respiratory syndrome coronavirus 2” (Eur J Med Chem, 2024)
pEC50, pIC50: −log10 of the molar value. In brackets after ≈: the same amount, converted by molar mass.

Experiments:
[1] = test system: SARS-CoV-2; assay: Antiviral activity against SARS-CoV-2 infected in African green monkey Vero E6 cells assessed as inhibition of viral growth incubated for 24 hrs by qRT-PCR analysis; assay type: functional, organism-based; details: Severe acute respiratory syndrome coronavirus 2, Vero C1008, 24 h
[2] = biological target: Replicase polyprotein 1ab (Severe acute respiratory syndrome coronavirus 2, UniProt P0DTD1)
Description: Inhibition of SARS CoV-2 main protease

[3] = test system: SARS-CoV-2; assay: Antiviral activity against SARS-CoV-2 infected in african green monkey Vero E6 cells assessed as reduction in viral replication; assay type: functional, organism-based; details: Severe acute respiratory syndrome coronavirus 2, Vero C1008
[4] = test system: SARS-CoV-2; assay: Antiviral activity against SARS-CoV-2 infected in human Calu-3 cells assessed as reduction in viral replication incubated for 48 hrs by RT-PCR; assay type: functional, organism-based; details: Severe acute respiratory syndrome coronavirus 2, Calu-3, 48 h
[5] = test system: SARS-CoV-2; assay: Antiviral activity against SARS-CoV-2 infected in african green monkey Vero E6 cells assessed as reduction in viral growth measured for 2 days by qRT-PCR; assay type: functional, organism-based; details: Severe acute respiratory syndrome coronavirus 2, Vero C1008, 48 h
[6] = test system: SARS-CoV-2; assay: Antiviral activity against SARS-CoV-2 infected in African green monkey Vero E6 cells assessed as reduction in viral replication measured after 3 days by qRT-PCR analysis; assay type: functional, organism-based; details: Severe acute respiratory syndrome coronavirus 2, Vero C1008, 72 h
[7] = test system: SARS-CoV-2; assay: Antiviral activity against SARS-CoV-2 infected in human A549-ACE2 cells assessed as viral growth inhibition; assay type: functional, organism-based; details: Severe acute respiratory syndrome coronavirus 2, A549-ACE2
[8] = test system: SARS-CoV-2; assay: Antiviral activity against SARS-CoV-2 infected in monkey Vero E6 cells assessed as inhibition of […]; assay type: functional, organism-based; details: Severe acute respiratory syndrome coronavirus 2, Vero C1008

C[C@@H]1CC[C@H]2[C@@H](C)C(=O)O[C@@H]3O[C@@]4(C)CC[C@@H]1[C@]32OO4 [ARTEMISININ]
pEC50 [1]: 4.99

COc1ccc2cc1Oc1ccc(cc1)C[C@H]1c3c(cc4c(c3Oc3cc5c(cc3OC)CCN(C)[C@@H]5C2)OCO4)CCN1C [CEPHARANTHINE]
pIC50 [2]: 7.00

O=C(O[C@@H]1O[C@@H]2COC(=O)c3cc(O)c(O)c(O)c3-c3c(cc(O)c(O)c3O)C(=O)O[C@H]([C@H]1O)[C@@H]2O)c1cc(O)c(O)c(O)c1 [CORILAGIN]
pEC50 [3]: 6.89

COc1cc(/C=C/C(=O)CC(=O)/C=C/c2ccc(O)c(OC)c2)ccc1O [CURCUMIN]
pEC50 [4]: 4.42
pEC50 [5]: 4.42

O=C(O[C@@H]1Cc2c(O)cc(O)cc2O[C@@H]1c1cc(O)c(O)c(O)c1)c1cc(O)c(O)c(O)c1 [EPIGALOCATECHIN GALLATE]
pEC50 [6]: 5.00

CC1(C)[C@@H](O[C@H]2O[C@H](C(=O)O)[C@@H](O)[C@H](O)[C@H]2O[C@@H]2O[C@H](C(=O)O)[C@@H](O)[C@H](O)[C@H]2O)CC[C@]2(C)[C@H]3C(=O)C=C4[C@@H]5C[C@@](C)(C(=O)O)CC[C@]5(C)CC[C@@]4(C)[C@]3(C)CC[C@@H]12 [GLYCYRRHIZIN]
EC50 [7]: 0.44 µg/mL (≈ 0.535 µM)

O=c1c(O)c(-c2cc(O)c(O)c(O)c2)oc2cc(O)cc(O)c12 [MYRICETIN]
pEC50 [8]: 5.10

Cc1ccc(C(=O)Nc2ccc(S(=O)(=O)O)c3cc(S(=O)(=O)O)cc(S(=O)(=O)O)c23)cc1NC(=O)c1cccc(NC(=O)Nc2cccc(C(=O)Nc3cc(C(=O)Nc4ccc(S(=O)(=O)O)c5cc(S(=O)(=O)O)cc(S(=O)(=O)O)c45)ccc3C)c2)c1 [SURAMIN]
pEC50 [3]: 5.53
